This note sets out measurements from patent US9458133B2, “Isoquinolines as potassium ion channel inhibitors” (BRISTOL-MYERS SQUIBB COMPANY, priority 2013, dated 2016).

In the assay the target is T1, human Kv 1.5 (Homo sapiens, UniProt P22460).
T1 construct: expressed in transfected cells; host or cells: mouse L-929 fibroblasts stably expressing human Kv1.5
The assay can be described thus: Block of IKur current in patch clamped L-929 cells stably expressing human Kv1.5. The class given is cell-based. Conditions: L929, 0.3 μM; patch clamped mammalian L-929 cells expressing human Kv1.5 (IKur); read-out: KV1_5% Inh L929 @0.3 μM. The text has this:
Synders, D. J. et al., “A rapidly activating and slowly inactivating potassium channel cloned from human heart: functional analysis after stable mammalian cell culture expression”, J. Gen. Physiol., 101:513-543 (1993). […]
Background: In patch-clamp work, channel activity is measured electrically.

T1 sequence (P22460 whole entry): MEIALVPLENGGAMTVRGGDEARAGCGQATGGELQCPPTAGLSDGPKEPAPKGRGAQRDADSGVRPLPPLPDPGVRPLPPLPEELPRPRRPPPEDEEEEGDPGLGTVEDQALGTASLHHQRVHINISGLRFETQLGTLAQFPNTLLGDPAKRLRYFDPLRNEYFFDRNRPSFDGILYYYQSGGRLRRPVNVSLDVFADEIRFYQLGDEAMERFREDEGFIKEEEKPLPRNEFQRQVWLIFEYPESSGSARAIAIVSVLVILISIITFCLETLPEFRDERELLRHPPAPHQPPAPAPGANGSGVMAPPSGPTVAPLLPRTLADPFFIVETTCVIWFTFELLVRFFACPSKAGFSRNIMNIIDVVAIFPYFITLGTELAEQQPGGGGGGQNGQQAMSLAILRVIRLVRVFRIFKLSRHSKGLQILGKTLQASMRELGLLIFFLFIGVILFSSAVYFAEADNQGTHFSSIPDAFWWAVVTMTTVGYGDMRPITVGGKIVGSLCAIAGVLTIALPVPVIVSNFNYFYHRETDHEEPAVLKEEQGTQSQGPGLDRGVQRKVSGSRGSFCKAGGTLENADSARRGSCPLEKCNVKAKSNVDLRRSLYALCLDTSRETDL

As for `NC(=O)Nc1cccc(-c2cc3cccc(-c4ccccc4)c3c(NCc3ccccn3)n2)c1` [Example 38, 1-(3-(8-phenyl-1-(pyridin-2-ylmethylamino)isoquinolin-3-yl)phenyl)urea], the inhibition at 0.3 µM stood at 90.8%.

For the molecule `N#Cc1cccc(-c2cc3cccc(-c4ccccc4)c3c(NCc3ccccn3)n2)c1` [Example 39, 3-(8-phenyl-1-(pyridin-2-ylmethylamino)isoquinolin-3-yl)benzonitrile], the inhibition at 0.3 µM stood at 66.8%. Next, `N#Cc1ccc(-c2cc3cccc(-c4ccccc4)c3c(NCc3ccccn3)n2)cc1` [Example 40, 4-(8-phenyl-1-(pyridin-2-ylmethylamino)isoquinolin-3-yl)benzonitrile]: 92.3%; `NC(=O)c1cccc(-c2cc3cccc(-c4ccccc4)c3c(NCc3ccccn3)n2)c1` [Example 41, 3-(8-phenyl-1-(pyridin-2-ylmethylamino)isoquinolin-3-yl)benzamide]: 54.1%; `NC(=O)c1ccc(-c2cc3cccc(-c4ccccc4)c3c(NCc3ccccn3)n2)cc1` [Example 42, 4-(8-phenyl-1-(pyridin-2-ylmethylamino)isoquinolin-3-yl)benzamide]: 60.3%. Under `NS(=O)(=O)c1cncc(-c2cc3cccc(-c4ccccc4)c3c(NCc3cccc(Cl)c3Cl)n2)c1` [Example 43, 5-(1-(2,3-dichlorobenzylamino)-8-phenylisoquinolin-3-yl)pyridine-3-sulfonamide] stands 16.3%. Under `NS(=O)(=O)c1cccc(-c2cc3cccc(-c4ccccc4)c3c(NCCCc3ccccc3)n2)c1` [Example 44, 3-(8-phenyl-1-(3-phenylpropylamino)isoquinolin-3-yl)benzenesulfonamide] stands 18.6%; under `Cc1ccccc1CNc1nc(-c2cncc(S(N)(=O)=O)c2)cc2cccc(-c3ccccc3)c12` [Example 45, 5-(1-(2-methylbenzylamino)-8-phenylisoquinolin-3-yl)pyridine-3-sulfonamide], 78.5%. `CC(=O)Nc1cncc(-c2c(Cl)nc(NCc3ccccn3)c3c(-c4ccccc4)cccc23)c1` [Example 46, N-(5-(3-chloro-8-phenyl-1-(pyridin-2-ylmethylamino)isoquinolin-4-yl)pyridin-3-yl)acetamide]: the inhibition at 0.3 µM stood at 98.4%. With `CS(=O)(=O)Nc1cncc(-c2c(Cl)nc(NCc3ccccn3)c3c(-c4ccccc4)cccc23)c1` [Example 47, N-(5-(3-chloro-8-phenyl-1-(pyridin-2-ylmethylamino)isoquinolin-4-yl)pyridin-3-yl)methanesulfonamide], the inhibition at 0.3 µM is 98.1%.

With `NC(=O)Nc1cncc(-c2c(Cl)nc(NCc3ccccn3)c3c(-c4ccccc4)cccc23)c1` [Example 48, 1-(5-(3-chloro-8-phenyl-1-(pyridin-2-ylmethylamino)isoquinolin-4-yl)pyridin-3-yl)urea], the inhibition at 0.3 µM turned out to be 98.6%. With `Nc1ccccc1-c1cc2cccc(-c3ccccc3)c2c(NCc2ccccn2)n1` [Example 49, 3-(2-aminophenyl)-8-phenyl-N-(pyridin-2-ylmethyl)isoquinolin-1-amine], the inhibition at 0.3 µM is 52.2%. Next, `NS(=O)(=O)c1cncc(-c2cc3cccc(-c4ccccc4)c3c(NCc3ccc(F)cc3F)n2)c1` [Example 50, 5-(1-(2,4-difluorobenzylamino)-8-phenylisoquinolin-3-yl)pyridine-3-sulfonamide]: 54.1%. Consider `NS(=O)(=O)Nc1ccccc1-c1cc2cccc(-c3ccccc3)c2c(NCc2ccccn2)n1` [Example 51], for which the inhibition at 0.3 µM is 86.3%. For the molecule `NS(=O)(=O)c1cncc(-c2cc3cccc(-c4ccccc4)c3c(NCCOc3ccccc3)n2)c1` [Example 52, 5-(1-(2-phenoxyethylamino)-8-phenylisoquinolin-3-yl)pyridine-3-sulfonamide], the inhibition at 0.3 µM stood at 55.8%.

In the case of `Cc1cc(C)cc(CNc2nc(-c3cncc(S(N)(=O)=O)c3)cc3cccc(-c4ccccc4)c23)c1` [Example 53, 5-(1-(3,5-dimethylbenzylamino)-8-phenylisoquinolin-3-yl)pyridine-3-sulfonamide], the inhibition at 0.3 µM came to 40.1%. Next, `COc1cccc(CNc2nc(-c3cncc(S(N)(=O)=O)c3)cc3cccc(-c4ccccc4)c23)c1` [Example 54, 5-(1-(3-methoxybenzylamino)-8-phenylisoquinolin-3-yl)pyridine-3-sulfonamide]: 82.4%; `NS(=O)(=O)c1ccc(-c2c(Cl)nc(NCc3ccccn3)c3c(-c4ccccc4)cccc23)cc1` [Example 55, 4-(3-chloro-8-phenyl-1-(pyridin-2-ylmethylamino)isoquinolin-4-yl)benzenesulfonamide]: 97.6%; `N#Cc1ccc(-c2c(Cl)nc(NCc3ccccn3)c3c(-c4ccccc4)cccc23)cc1` [Example 56, 4-(3-chloro-8-phenyl-1-(pyridin-2-ylmethylamino)isoquinolin-4-yl)benzonitrile]: 89.7%. As for `NC(=O)c1ccc(-c2c(Cl)nc(NCc3ccccn3)c3c(-c4ccccc4)cccc23)cc1` [Example 57, 4-(3-chloro-8-phenyl-1-(pyridin-2-ylmethylamino)isoquinolin-4-yl)benzamide], the inhibition at 0.3 µM amounted to 98.6%. Next, `Nc1ccc(-c2cc3cccc(-c4ccccc4)c3c(NCc3ccccn3)n2)cn1` [Example 58, 3-(6-aminopyridin-3-yl)-8-phenyl-N-(pyridin-2-ylmethyl)isoquinolin-1-amine]: 22.8%. Next, `CC(=O)Nc1cccc(-c2c(Cl)nc(NCc3ccccn3)c3c(-c4ccccc4)cccc23)c1` [Example 60, N-(3-(3-chloro-8-phenyl-1-(pyridin-2-ylmethylamino)isoquinolin-4-yl)phenyl)acetamide]: 96.2%; `N#Cc1cccc(-c2c(Cl)nc(NCc3ccccn3)c3c(-c4ccccc4)cccc23)c1` [Example 61, 3-(3-chloro-8-phenyl-1-(pyridin-2-ylmethylamino)isoquinolin-4-yl)benzonitrile]: 95.1%; `COc1cc(-c2c(Cl)nc(NCc3ccccn3)c3c(-c4ccccc4)cccc23)ccn1` [Example 62, 3-chloro-4-(2-methoxypyridin-4-yl)-8-phenyl-N-(pyridin-2-ylmethyl)isoquinolin-1-amine]: 95.6%.

On to `CS(=O)(=O)Nc1ccc(-c2cc3cccc(-c4ccccc4)c3c(NCc3ccccn3)n2)cn1` [Example 63, N-(5-(8-phenyl-1-(pyridin-2-ylmethylamino)isoquinolin-3-yl)pyridin-2-yl)methanesulfonamide], for which the inhibition at 0.3 µM came to 53.2%. Next, `CC(=O)Nc1ccc(-c2cc3cccc(-c4ccccc4)c3c(NCc3ccccn3)n2)cn1` [Example 64, N-(5-(8-phenyl-1-(pyridin-2-ylmethylamino)isoquinolin-3-yl)pyridin-2-yl)acetamide]: 57.5%; `NS(=O)(=O)c1ccccc1-c1cc2cccc(-c3ccccc3)c2c(NCc2ccccn2)n1` [Example 65, 2-(8-phenyl-1-(pyridin-2-ylmethylamino)isoquinolin-3-yl)benzenesulfonamide]: 50.5%. For the molecule `NC(=O)c1cccc(-c2c(Cl)nc(NCc3ccccn3)c3c(-c4ccccc4)cccc23)c1` [Example 66, 3-(3-chloro-8-phenyl-1-(pyridin-2-ylmethylamino)isoquinolin-4-yl)benzamide], the inhibition at 0.3 µM was determined as 99.3%. With `COc1ccc(-c2cc3cccc(-c4ccccc4)c3c(NCc3ccccn3)n2)cn1` [Example 67, 3-(6-methoxypyridin-3-yl)-8-phenyl-N-(pyridin-2-ylmethyl)isoquinolin-1-amine], the inhibition at 0.3 µM stood at 96.9%. Under `Nc1ccc(-c2c(Cl)nc(NCc3ccccn3)c3c(-c4ccccc4)cccc23)cc1` [Example 68, 4-(4-aminophenyl)-3-chloro-8-phenyl-N-(pyridin-2-ylmethyl)isoquinolin-1-amine] stands 98.3%; under `CS(=O)(=O)Nc1ccc(-c2c(Cl)nc(NCc3ccccn3)c3c(-c4ccccc4)cccc23)cc1` [Example 69, N-(4-(3-chloro-8-phenyl-1-(pyridin-2-ylmethylamino)isoquinolin-4-yl)phenyl)methanesulfonamide], 98.4%. Under `CS(=O)(=O)Nc1cccc(-c2c(Cl)nc(NCc3ccccn3)c3c(-c4ccccc4)cccc23)c1` [Example 70, N-(3-(3-chloro-8-phenyl-1-(pyridin-2-ylmethylamino)isoquinolin-4-yl)phenyl)methanesulfonamide] stands 95.7%; under `NS(=O)(=O)c1cncc(-c2cc3cccc(-c4ccccc4)c3c(N[C@H]3CCN(Cc4ccccc4)C3)n2)c1` [Example 71, (S)-5-(1-(1-benzylpyrrolidin-3-ylamino)-8-phenylisoquinolin-3-yl)pyridine-3-sulfonamide], 67.7%; under `NS(=O)(=O)c1cncc(-c2cc3cccc(-c4ccccc4)c3c(NCc3csc(-c4ccccc4)n3)n2)c1` [Example 72, 5-(8-phenyl-1-((2-phenylthiazol-4-yl)methylamino)isoquinolin-3-yl)pyridine-3-sulfonamide], 16.1%.

For `NS(=O)(=O)c1cncc(-c2cc3cccc(-c4ccccc4)c3c(N[C@H]3CCC[C@@H]3OCc3ccccc3)n2)c1` [Example 73, 5-(1-((1S,2S)-2-(benzyloxy)cyclopentylamino)-8-phenylisoquinolin-3-yl)pyridine-3-sulfonamide], the inhibition at 0.3 µM was 56.3%. Next, `Cc1cnc(CNc2nc(-c3cncc(S(N)(=O)=O)c3)cc3cccc(-c4ccccc4)c23)cn1` [Example 74, 5-(1-((5-methylpyrazin-2-yl)methylamino)-8-phenylisoquinolin-3-yl)pyridine-3-sulfonamide]: 79.5%.
